The term amount remaining denotes what is left of the initial amount, in per cent. High values mean greater stability, low ones a greater loss.

The values that follow come from article PMC3972818 (Nature medicine, 2014).

One data set in a line: in vitro. It is filed as in vitro ADME. The conditions noted are these: rat, microsomes.
For data set [1] the following is noted: mean (% CV); cited from earlier work.
The subject of data set [2] is COX1 synthesis in mitochondria isolated from HEK293 cells. Briefly: Mitochondrial in organello translation. It is filed as biochemical, human. The following applies: even up to 1 mM.
For data set [3] the following is noted: rat IV; mean (% CV); cited from earlier work.

In “in vitro”, `CN[C@@H]1[C@H](O)[C@H](NC)[C@H]2O[C@@]3(O)C(=O)C[C@@H](C)O[C@H]3O[C@@H]2[C@H]1O` [Spectinomycin, spectinomycin] registered a share remaining at 1.5 h of 80.4%. Further, the “Protein serum binding (Rat) % bound” value in data set [1] is 12.7 (7.5)^2%. Also, the “Inhibition of in organello mitochondrial translation” value in data set [2] is given as “did not inhibit”. Besides, in data set [3], the “% excreted unchanged in urine” value is listed as 55.3 (27.0)^2%, the CL is given as 0.60 (11.5)^2 L/h/kg, the Vd is listed as 0.76 (45.2)^2 L/kg and the t½ is recorded as 0.75 (49.3)^2 h.
